According to ChEMBL document CHEMBL4811261, “Synthesis and biological evaluation of novel benzo[a]pyridazino[3,4-c]phenazine derivatives” (Bioorg Med Chem Lett, 2021):

System: Limosilactobacillus fermentum
Test: Antibacterial activity against Lactobacillus fermentum measured by broth microdilution method
Format: functional, organism-based

| IC50 [µM] | Compound |
| --- | --- |
| > 100 | CN1N=C(c2ccc3ccccc3c2)C(c2ccc3ccccc3c2)c2c1c1ccccc1c1nc3ccccc3nc21 (stereo not given) |
| > 100 | CN1N=C(c2ccccc2)C(c2ccccc2)c2c1c1ccccc1c1nc3ccccc3nc21 (stereo not given) |
| > 100 | COc1cccc(C2=NN(C)c3c(c4nc5ccccc5nc4c4ccccc34)C2c2cccc(OC)c2)c1 (stereo not given) |
| > 100 | CN1N=C(c2ccc([N+](=O)O)cc2)C(c2ccc([N+](=O)[O-])cc2)c2c1c1ccccc1c1nc3ccccc3nc21 (stereo not given) |
| > 100 | COc1ccc(C2=NN(C)c3c(c4nc5ccccc5nc4c4ccccc34)C2c2ccc(OC)cc2)cc1 (stereo not given) |

System: KB
Test: Cytotoxicity against human KB cells assessed as cell viability measured by MTT assay
Format: functional, cell-based

| Compound | IC50 [µM] |
| --- | --- |
| CN1N=C(c2ccc3ccccc3c2)C(c2ccc3ccccc3c2)c2c1c1ccccc1c1nc3ccccc3nc21 (stereo not given) | > 100 |
| CN1N=C(c2ccccc2)C(c2ccccc2)c2c1c1ccccc1c1nc3ccccc3nc21 (stereo not given) | 19.4 |
| COc1cccc(C2=NN(C)c3c(c4nc5ccccc5nc4c4ccccc34)C2c2cccc(OC)c2)c1 (stereo not given) | 64.4 |
| CN1N=C(c2ccc([N+](=O)O)cc2)C(c2ccc([N+](=O)[O-])cc2)c2c1c1ccccc1c1nc3ccccc3nc21 (stereo not given) | > 100 |
| COc1ccc(C2=NN(C)c3c(c4nc5ccccc5nc4c4ccccc34)C2c2ccc(OC)cc2)cc1 (stereo not given) | 16.7 |

System: HEK293
Test: Cytotoxicity against human HEK293 cells assessed as cell viability measured by MTT assay
Format: cell-based

| Compound | IC50 [µM] |
| --- | --- |
| CN1N=C(c2ccc3ccccc3c2)C(c2ccc3ccccc3c2)c2c1c1ccccc1c1nc3ccccc3nc21 (stereo not given) | > 100 |
| CN1N=C(c2ccccc2)C(c2ccccc2)c2c1c1ccccc1c1nc3ccccc3nc21 (stereo not given) | > 100 |
| COc1cccc(C2=NN(C)c3c(c4nc5ccccc5nc4c4ccccc34)C2c2cccc(OC)c2)c1 (stereo not given) | > 100 |
| CN1N=C(c2ccc([N+](=O)O)cc2)C(c2ccc([N+](=O)[O-])cc2)c2c1c1ccccc1c1nc3ccccc3nc21 (stereo not given) | > 100 |
| COc1ccc(C2=NN(C)c3c(c4nc5ccccc5nc4c4ccccc34)C2c2ccc(OC)cc2)cc1 (stereo not given) | 73.4 |

System: Salmonella enterica
Test: Antibacterial activity against Salmonella enterica measured by broth microdilution method
Format: functional, organism-based

| IC50 [µM] | Compound |
| --- | --- |
| > 100 | CN1N=C(c2ccc3ccccc3c2)C(c2ccc3ccccc3c2)c2c1c1ccccc1c1nc3ccccc3nc21 (stereo not given) |
| > 100 | CN1N=C(c2ccccc2)C(c2ccccc2)c2c1c1ccccc1c1nc3ccccc3nc21 (stereo not given) |
| > 100 | COc1cccc(C2=NN(C)c3c(c4nc5ccccc5nc4c4ccccc34)C2c2cccc(OC)c2)c1 (stereo not given) |
| > 100 | CN1N=C(c2ccc([N+](=O)O)cc2)C(c2ccc([N+](=O)[O-])cc2)c2c1c1ccccc1c1nc3ccccc3nc21 (stereo not given) |
| > 100 | COc1ccc(C2=NN(C)c3c(c4nc5ccccc5nc4c4ccccc34)C2c2ccc(OC)cc2)cc1 (stereo not given) |

System: Bacillus subtilis
Test: Antibacterial activity against Bacillus subtilis measured by broth microdilution method
Format: functional, organism-based

| IC50 [µM] | Compound |
| --- | --- |
| > 100 | CN1N=C(c2ccc3ccccc3c2)C(c2ccc3ccccc3c2)c2c1c1ccccc1c1nc3ccccc3nc21 (stereo not given) |
| > 100 | CN1N=C(c2ccccc2)C(c2ccccc2)c2c1c1ccccc1c1nc3ccccc3nc21 (stereo not given) |
| 90.8 | COc1cccc(C2=NN(C)c3c(c4nc5ccccc5nc4c4ccccc34)C2c2cccc(OC)c2)c1 (stereo not given) |
| 77.9 | CN1N=C(c2ccc([N+](=O)O)cc2)C(c2ccc([N+](=O)[O-])cc2)c2c1c1ccccc1c1nc3ccccc3nc21 (stereo not given) |
| > 100 | COc1ccc(C2=NN(C)c3c(c4nc5ccccc5nc4c4ccccc34)C2c2ccc(OC)cc2)cc1 (stereo not given) |

System: HepG2
Test: Cytotoxicity against human HepG2 cells assessed as cell viability measured by MTT assay
Format: functional, cell-based

| Compound | IC50 [µM] |
| --- | --- |
| CN1N=C(c2ccc3ccccc3c2)C(c2ccc3ccccc3c2)c2c1c1ccccc1c1nc3ccccc3nc21 (stereo not given) | 81.4 |
| CN1N=C(c2ccccc2)C(c2ccccc2)c2c1c1ccccc1c1nc3ccccc3nc21 (stereo not given) | 10.5 |
| COc1cccc(C2=NN(C)c3c(c4nc5ccccc5nc4c4ccccc34)C2c2cccc(OC)c2)c1 (stereo not given) | 36.3 |
| CN1N=C(c2ccc([N+](=O)O)cc2)C(c2ccc([N+](=O)[O-])cc2)c2c1c1ccccc1c1nc3ccccc3nc21 (stereo not given) | > 100 |
| COc1ccc(C2=NN(C)c3c(c4nc5ccccc5nc4c4ccccc34)C2c2ccc(OC)cc2)cc1 (stereo not given) | 14.6 |

System: not listed separately
Test: Cytotoxicity against human Lu1 cells assessed as cell viability measured by MTT assay
Format: functional, cell-based

| Compound | IC50 [µM] |
| --- | --- |
| CN1N=C(c2ccc3ccccc3c2)C(c2ccc3ccccc3c2)c2c1c1ccccc1c1nc3ccccc3nc21 (stereo not given) | > 100 |
| CN1N=C(c2ccccc2)C(c2ccccc2)c2c1c1ccccc1c1nc3ccccc3nc21 (stereo not given) | 18.6 |
| COc1cccc(C2=NN(C)c3c(c4nc5ccccc5nc4c4ccccc34)C2c2cccc(OC)c2)c1 (stereo not given) | 56 |
| CN1N=C(c2ccc([N+](=O)O)cc2)C(c2ccc([N+](=O)[O-])cc2)c2c1c1ccccc1c1nc3ccccc3nc21 (stereo not given) | > 100 |
| COc1ccc(C2=NN(C)c3c(c4nc5ccccc5nc4c4ccccc34)C2c2ccc(OC)cc2)cc1 (stereo not given) | 18.2 |

System: Staphylococcus aureus
Test: Antibacterial activity against Staphylococcus aureus measured by broth microdilution method
Format: functional, organism-based

| IC50 [µM] | Compound |
| --- | --- |
| > 100 | CN1N=C(c2ccc3ccccc3c2)C(c2ccc3ccccc3c2)c2c1c1ccccc1c1nc3ccccc3nc21 (stereo not given) |
| > 100 | CN1N=C(c2ccccc2)C(c2ccccc2)c2c1c1ccccc1c1nc3ccccc3nc21 (stereo not given) |
| > 100 | COc1cccc(C2=NN(C)c3c(c4nc5ccccc5nc4c4ccccc34)C2c2cccc(OC)c2)c1 (stereo not given) |
| > 100 | CN1N=C(c2ccc([N+](=O)O)cc2)C(c2ccc([N+](=O)[O-])cc2)c2c1c1ccccc1c1nc3ccccc3nc21 (stereo not given) |
| > 100 | COc1ccc(C2=NN(C)c3c(c4nc5ccccc5nc4c4ccccc34)C2c2ccc(OC)cc2)cc1 (stereo not given) |

System: MCF7
Test: Cytotoxicity against human MCF7 cells assessed as cell viability measured by MTT assay
Format: functional, cell-based

| Compound | IC50 [µM] |
| --- | --- |
| CN1N=C(c2ccc3ccccc3c2)C(c2ccc3ccccc3c2)c2c1c1ccccc1c1nc3ccccc3nc21 (stereo not given) | > 100 |
| CN1N=C(c2ccccc2)C(c2ccccc2)c2c1c1ccccc1c1nc3ccccc3nc21 (stereo not given) | 22 |
| COc1cccc(C2=NN(C)c3c(c4nc5ccccc5nc4c4ccccc34)C2c2cccc(OC)c2)c1 (stereo not given) | 70.7 |
| CN1N=C(c2ccc([N+](=O)O)cc2)C(c2ccc([N+](=O)[O-])cc2)c2c1c1ccccc1c1nc3ccccc3nc21 (stereo not given) | > 100 |
| COc1ccc(C2=NN(C)c3c(c4nc5ccccc5nc4c4ccccc34)C2c2ccc(OC)cc2)cc1 (stereo not given) | 21.8 |

System: Escherichia
Test: Antibacterial activity against Escherichia measured by broth microdilution method
Format: functional, organism-based

| IC50 [µM] | Compound |
| --- | --- |
| > 100 | CN1N=C(c2ccc3ccccc3c2)C(c2ccc3ccccc3c2)c2c1c1ccccc1c1nc3ccccc3nc21 (stereo not given) |
| > 100 | CN1N=C(c2ccccc2)C(c2ccccc2)c2c1c1ccccc1c1nc3ccccc3nc21 (stereo not given) |
| > 100 | COc1cccc(C2=NN(C)c3c(c4nc5ccccc5nc4c4ccccc34)C2c2cccc(OC)c2)c1 (stereo not given) |
| > 100 | CN1N=C(c2ccc([N+](=O)O)cc2)C(c2ccc([N+](=O)[O-])cc2)c2c1c1ccccc1c1nc3ccccc3nc21 (stereo not given) |
| > 100 | COc1ccc(C2=NN(C)c3c(c4nc5ccccc5nc4c4ccccc34)C2c2ccc(OC)cc2)cc1 (stereo not given) |

System: Candida albicans
Test: Antifungal activity against Candida albicans measured by broth microdilution method
Format: functional, organism-based

| IC50 [µM] | Compound |
| --- | --- |
| > 100 | CN1N=C(c2ccc3ccccc3c2)C(c2ccc3ccccc3c2)c2c1c1ccccc1c1nc3ccccc3nc21 (stereo not given) |
| > 100 | CN1N=C(c2ccccc2)C(c2ccccc2)c2c1c1ccccc1c1nc3ccccc3nc21 (stereo not given) |
| > 100 | COc1cccc(C2=NN(C)c3c(c4nc5ccccc5nc4c4ccccc34)C2c2cccc(OC)c2)c1 (stereo not given) |
| > 100 | CN1N=C(c2ccc([N+](=O)O)cc2)C(c2ccc([N+](=O)[O-])cc2)c2c1c1ccccc1c1nc3ccccc3nc21 (stereo not given) |
| > 100 | COc1ccc(C2=NN(C)c3c(c4nc5ccccc5nc4c4ccccc34)C2c2ccc(OC)cc2)cc1 (stereo not given) |

System: Pseudomonas aeruginosa
Test: Antibacterial activity against Pseudomonas aeruginosa measured by broth microdilution method
Format: functional, organism-based

| IC50 [µM] | Compound |
| --- | --- |
| > 100 | CN1N=C(c2ccc3ccccc3c2)C(c2ccc3ccccc3c2)c2c1c1ccccc1c1nc3ccccc3nc21 (stereo not given) |
| > 100 | CN1N=C(c2ccccc2)C(c2ccccc2)c2c1c1ccccc1c1nc3ccccc3nc21 (stereo not given) |
| > 100 | COc1cccc(C2=NN(C)c3c(c4nc5ccccc5nc4c4ccccc34)C2c2cccc(OC)c2)c1 (stereo not given) |
| > 100 | CN1N=C(c2ccc([N+](=O)O)cc2)C(c2ccc([N+](=O)[O-])cc2)c2c1c1ccccc1c1nc3ccccc3nc21 (stereo not given) |
| > 100 | COc1ccc(C2=NN(C)c3c(c4nc5ccccc5nc4c4ccccc34)C2c2ccc(OC)cc2)cc1 (stereo not given) |
